A compilation of properties of binary mixtures (doi:10.1007/s10953-023-01258-3)

Assay: xn = mol fraction of the nth substance listed
Conditions: 101 kPa

Cn1cc[n+](CCCN)c1.F[B-](F)(F)F + CS(C)=O
Conditions | electrical conductivity [S/m] | viscosity [mPa·s]
288.15 K, x1 = 0.1003 | 0.829 | 17.63
288.15 K, x1 = 0.2 | 0.632 | 34.87
288.15 K, x1 = 0.2997 | 0.465 | 54.65
288.15 K, x1 = 0.3997 | 0.288 | 75.94
288.15 K, x1 = 0.4998 | 0.187 | 98.4
288.15 K, x1 = 0.5999 | 0.124 | 122.2
288.15 K, x1 = 0.7001 | 0.078 | 147.4
288.15 K, x1 = 0.8109 | 0.044 | 176.7
288.15 K, x1 = 0.8998 | 0.023 | 201.6
288.15 K, x1 = 1 | 0.011 | 231.2
293.15 K, x1 = 0.1003 | 0.943 | 13.32
293.15 K, x1 = 0.2 | 0.716 | 26.44
293.15 K, x1 = 0.4998 | 0.222 | 76.63
293.15 K, x1 = 0.7001 | 0.097 | 116.9
293.15 K, x1 = 0.8109 | 0.056 | 140.8
293.15 K, x1 = 1 | 0.018 | 185.4
298.15 K, x1 = 0.2 | 0.81 | 20.51
298.15 K, x1 = 0.2997 | 0.609 | 32.66
298.15 K, x1 = 0.3997 | 0.395 | 45.88
298.15 K, x1 = 0.4998 | 0.268 | 60.22
298.15 K, x1 = 0.5999 | 0.186 | 76.06
298.15 K, x1 = 0.7001 | 0.122 | 93.45
298.15 K, x1 = 0.8109 | 0.072 | 113.4
298.15 K, x1 = 0.8998 | 0.046 | 130.1
303.15 K, x1 = 0.1003 | 1.22 | 7.961
303.15 K, x1 = 0.2 | 0.919 | 16.1
303.15 K, x1 = 0.3997 | 0.462 | 36.37
303.15 K, x1 = 0.4998 | 0.317 | 47.87
303.15 K, x1 = 0.5999 | 0.228 | 60.72
303.15 K, x1 = 1 | 0.04 | 121.1
308.15 K, x1 = 0.1003 | 1.37 | 6.38
308.15 K, x1 = 0.2 | 1.05 | 13.1
308.15 K, x1 = 0.2997 | 0.799 | 20.89
308.15 K, x1 = 0.3997 | 0.533 | 29.16
308.15 K, x1 = 0.4998 | 0.37 | 38.73
308.15 K, x1 = 0.5999 | 0.271 | 49.63
308.15 K, x1 = 0.7001 | 0.183 | 61.64
308.15 K, x1 = 0.8998 | 0.082 | 87.11
313.15 K, x1 = 0.2 | 1.17 | 10.81
313.15 K, x1 = 0.2997 | 0.894 | 17.08
313.15 K, x1 = 0.3997 | 0.617 | 24.03
313.15 K, x1 = 0.4998 | 0.435 | 31.72
313.15 K, x1 = 0.7001 | 0.221 | 50.72
313.15 K, x1 = 0.8998 | 0.105 | 72.01
313.15 K, x1 = 1 | 0.072 | 83.06
318.15 K, x1 = 0.1003 | 1.71 | 4.406
318.15 K, x1 = 0.2 | 1.32 | 8.853
318.15 K, x1 = 0.2997 | 1.01 | 14.22
318.15 K, x1 = 0.4998 | 0.506 | 26.45
318.15 K, x1 = 0.5999 | 0.378 | 33.63
318.15 K, x1 = 0.8109 | 0.183 | 51.83
318.15 K, x1 = 0.8998 | 0.134 | 60.04
318.15 K, x1 = 1 | 0.094 | 69.26
323.15 K, x1 = 0.1003 | 1.91 | 3.679
323.15 K, x1 = 0.2 | 1.47 | 7.468
323.15 K, x1 = 0.2997 | 1.13 | 11.79
323.15 K, x1 = 0.3997 | 0.81 | 16.67
323.15 K, x1 = 0.5999 | 0.446 | 28.21
323.15 K, x1 = 0.7001 | 0.314 | 35.29
323.15 K, x1 = 0.8109 | 0.223 | 43.46
323.15 K, x1 = 0.8998 | 0.17 | 50.38
328.15 K, x1 = 0.2997 | 1.26 | 10.06
328.15 K, x1 = 0.4998 | 0.659 | 18.73
328.15 K, x1 = 0.5999 | 0.515 | 24.2
328.15 K, x1 = 0.7001 | 0.369 | 30.06
328.15 K, x1 = 0.8109 | 0.269 | 37.19
328.15 K, x1 = 0.8998 | 0.21 | 43.13
328.15 K, x1 = 1 | 0.159 | 50.12
333.15 K, x1 = 0.1003 | 2.3 | 2.79
333.15 K, x1 = 0.2 | 1.78 | 5.508
333.15 K, x1 = 0.3997 | 1.04 | 12.05
333.15 K, x1 = 0.4998 | 0.749 | 16.07
333.15 K, x1 = 0.5999 | 0.593 | 20.41
333.15 K, x1 = 0.7001 | 0.431 | 25.32
333.15 K, x1 = 0.8109 | 0.323 | 31.21
333.15 K, x1 = 0.8998 | 0.258 | 36.19
333.15 K, x1 = 1 | 0.203 | 42.31
338.15 K, x1 = 0.1003 | 2.53 | 2.4
338.15 K, x1 = 0.2 | 1.97 | 4.865
338.15 K, x1 = 0.2997 | 1.55 | 7.311
338.15 K, x1 = 0.4998 | 0.849 | 13.77
338.15 K, x1 = 0.5999 | 0.682 | 17.48
338.15 K, x1 = 0.7001 | 0.496 | 21.74
338.15 K, x1 = 0.8998 | 0.312 | 31.24
343.15 K, x1 = 0.2 | 2.17 | 4.241
343.15 K, x1 = 0.2997 | 1.71 | 6.401
343.15 K, x1 = 0.3997 | 1.3 | 8.856
343.15 K, x1 = 0.4998 | 0.948 | 11.78
343.15 K, x1 = 0.7001 | 0.572 | 19.03
343.15 K, x1 = 0.8109 | 0.449 | 23.52
343.15 K, x1 = 0.8998 | 0.374 | 27.44
343.15 K, x1 = 1 | 0.308 | 32.15
348.15 K, x1 = 0.1003 | 3.02 | 2.048
348.15 K, x1 = 0.2 | 2.37 | 3.722
348.15 K, x1 = 0.2997 | 1.88 | 5.565
348.15 K, x1 = 0.3997 | 1.46 | 7.954
348.15 K, x1 = 0.4998 | 1.07 | 10.3
348.15 K, x1 = 0.5999 | 0.877 | 13.38
348.15 K, x1 = 0.7001 | 0.656 | 16.16
348.15 K, x1 = 0.8109 | 0.524 | 20.12
348.15 K, x1 = 0.8998 | 0.445 | 23.5
348.15 K, x1 = 1 | 0.374 | 27.51
353.15 K, x1 = 0.1003 | 3.27 | 1.997
353.15 K, x1 = 0.2 | 2.58 | 3.564
353.15 K, x1 = 0.2997 | 2.07 | 5.199
353.15 K, x1 = 0.4998 | 1.19 | 9.541
353.15 K, x1 = 0.5999 | 0.978 | 12.09
353.15 K, x1 = 0.7001 | 0.749 | 14.98
353.15 K, x1 = 0.8109 | 0.608 | 18.65
353.15 K, x1 = 0.8998 | 0.522 | 21.71
353.15 K, x1 = 1 | 0.457 | 25.41

CS(C)=O + Cn1cc[n+](CCCN)c1.F[B-](F)(F)F
x2 = 0
Conditions | viscosity [mPa·s]
288.15 K | 2.605
293.15 K | 2.318
298.15 K | 2.089
303.15 K | 1.886
308.15 K | 1.717
313.15 K | 1.575
318.15 K | 1.447
323.15 K | 1.341
333.15 K | 1.164
338.15 K | 1.097
343.15 K | 1.034
348.15 K | 0.981
353.15 K | 0.934
